Measured values published in patent US7193085B2, “Acid Red 82 in mixtures” (Lanxess Deutschland GmbH, priority 2002, dated 2007).

Assay: Solubility of the dye
Format: physicochemical

Cc1ccc(Nc2ccc3c4c(cc(=O)n3C)-c3ccccc3C(=O)c24)c(S(=O)(=O)[O-])c1.[Na+] [Acid Red 80, C. I. Acid Red 80]
solubility compared with Acid Red 82: less than that of Acid Red 82
